# AEEA = NCCOCCOCC(=O)O
# Columns and labels:
# Assay type in all cases: cell-based
# [1] = test system: cells; experiment: Cellular uptake of mCherry variants (K10, exR10, R5, R8) with or without TNB-R10 5
# Excerpt: Most of our findings point to an energy-independent mode of uptake, but to probe whether TNB-R10 5 can also lead to endosomal leakage of an entrapped cargo, the inventors used peptide 5 on cells in combination with an mCherry variant (NLS-mCherry-K10 Ilil) that had been modified with a K10 peptide (via maleimide chemistry, see FIG. 8).
# The inventors also tested if recombinantly expressed CPP-fusion proteins can be delivered, as these require much less equipment and effort to produce.
# In the same vein, the inventors also made mCherry variants modified with R5 and R8 peptides and co-delivered them into cells with TNB-R10 5 (FIGS. 36-37).
# [2] = test system: cells; experiment: Uptake of NLS-mCherry-R10 and Alexa647-Transferrin with endocytosis inhibitors; settings: NLS-mCherry-R10 II 5 μM, additive 5 μM, 37° C.; sodium azide, dynasore, pitstop 2
# Experimental: NLS-mCherry-R10 II at a 5 μM concentration was added to cells in combination with 25 μg/mL Alexa647-Transferrin (Invitrogen) as endocytosis control. Where indicated, 5 μM of the Cys-R10 peptide 2 were added to induce nucleolar delivery of the mCherry.
# [3] = test system: cells; experiment: Uptake of NLS-mCherry-R10 II with additional CPP in presence of serum; settings: for co-delivery efficiency in presence of serum: 37° C.
# Experimental: Scale bars 20 μm. b, Quantification of relative nuclear fluorescence intensities from microscopy pictures. n.s.=not significant, ***=P<0.0005.
# Methods of cargo delivery that rely on endosomal escape are often susceptible to the presence of serum, as they require effective endocytosis of both the cargo and the endosomolytic agent (Erazo-Oliveras, A. et al. Protein delivery into live cells by incubation with an endosomolytic agent. Nat Methods 11, 861-867, doi:10.1038/nmeth.2998 (2014)). The inventors hypothesized that peptide 5 would likely react with thiols in the serum, but the co-delivery with 2 (Cys-R10) should still function. […] Reduction in efficiency in presence of large amounts of serum may be due to the thiols in serum or the unspecific binding of CPPs to serum proteins (Lattig-Tunnemann, G. et al. Backbone rigidity and static presentation of guanidinium groups increases cellular uptake of arginine-rich cell-penetrating peptides. Nat Commun 2, 453, doi:10.1038/ncomms1459 (2011)).
# [4] = test system: HeLa CCL-2 cells; experiment: Cre Stoplight 2.4 reporter, delivery of Cre-exR8, flow cytometry and microscopy
# Excerpt: To challenge the delivery protocol, the inventors expressed and purified Cre recombinase fused to a C-terminal R8 peptide (Cre-exR8, characterization in FIG. 39). Fusions of Cre recombinase with the arginine-rich HIV TAT peptide have been previously reported to aid in cell uptake (Peitz, M., Pfannkuche, K., Rajewsky, K. & Edenhofer, F. Ability of the hydrophobic FGF and basic TAT peptides to promote cellular uptake of recombinant Cre recombinase: a tool for efficient genetic engineering of mammalian genomes. Proc Natl Acad Sci USA 99, 4489-4494, doi:10.1073/pnas.032068699 (2002)).
# For the Cre recombinase experiments, 200′000 cells were seeded in each well of a 12-well plate. The cells were incubated for 24 hours at 37° C. to settle, then transfected with the reporter plasmid (Cre Stoplight 2.4) using Lipofectamine 2000. The cells were incubated for another 24 hours, then treated with Cre recombinase (or medium) in DMEM with 5% FCS and incubated for 24 more hours. Microscopy pictures were then taken, and the cells were detached with accutase, dead cells stained with DAPI and all cells measured on a LSRFortessa (BD Biosciences, USA) flow cytometer. […] At least 10′000 cells were counted for each condition. The gating strategy is illustrated in FIG. 41.
# [5] = test system: HeLa Kyoto cells; experiment: Quantitative microscopy of nuclear mCherry fluorescence after co-delivery with R10-peptides; settings: 5 μM mCherry-R10 conjugate II with additive
# Experimental: To further evaluate the high efficiency of the CPP-peptide additives 1 and 2 in the additive protocol and to probe the impact of the N-terminal thiol functionality, the inventors synthesized additional linear CPPs 3-5 with different thiol derivatives (FIG. 2a). We then co-delivered 5 μM of CPP-conjugates of mCherry either linked to a linear (11) or cyclic R10 (1) (as above in FIG. 1 d-e) together with the newly synthesized peptides 1-5 into HeLa Kyoto cells and used microscopy to measure both nuclear and total fluorescence (representative pictures for all tested conditions in FIG. 12). Thereby, the inventors quantified the desirable delivery to the nucleus and nucleoli (FIG. 2a), and also the amount of unwanted endosomal entrapment (FIG. 13, see example 6 with supporting methods and general methods for details).
# Cell culturing is described in the supplementary methods, along with a list of cell lines used in this study. For microscopy experiments, 20′000 cells (10′000 in the case of the GFP-PCNA HeLa Kyoto cell line^7) were seeded into the wells of a 96-well glass bottom plate. The cells were left to adhere and grow for 24 hours at 37° C. with 5% CO2. For 37° C. experiments, the cells were washed once with DMEM before addition of the protein samples in DMEM. The cells were incubated for 1 hour at 37° C. The cells were then washed three times with DMEM with 10% fetal bovine serum (FBS). […] For the quantitative microscopy experiments, the cells were fixed using 4% PFA in PBS for 30 minutes at room temperature after washing.
# Quantification of cellular uptake was done using a script for FIJI, see section “Quantification Script”. […] The red fluorescence channel was background subtracted and the red fluorescence within the nuclear mask and outside of it was quantified. Nuclear fluorescence was either normalized to the nuclear area (absolute fluorescence graph in FIG. 2) or to the sum of nuclear and outside fluorescence (relative fluorescence graph in SI FIG. 6). Pearson's correlation coefficient was calculated using the Coloc2 tool in Fiji.
# [6] = test system: HeLa Kyoto cells; experiment: Cellular uptake of CPP-bearing cargoes with or without unbound CPP additive, confocal microscopy
# Excerpt: To evaluate the concentration, temperature and cargo-size dependency of added arginine-rich peptides to mediate cytosolic delivery, the inventors chose three distinct cargoes to transport: the organic fluorophore Tetramethylrhodamine (TAMRA, ˜450 Da), the camelid-derived anti-GFP nanobody GBP1 (˜14 kDa) and the fluorescent protein mCherry with a nuclear localization signal (NLS-mCherry, ˜28 kDa). […] We then applied all of the synthesized cargoes to HeLa Kyoto cells (expressing nuclear GFP-PCNA (Leonhardt, H. et al. Dynamics of DNA replication factories in living cells. J Cell Biol 149, 271-280, doi:10.1083/jcb.149.2.271 (2000). Chagin, V. O. et al. 4D Visualization of replication foci in mammalian cells corresponding to individual replicons. Nat Commun 7, 11231, doi:10.1038/ncomms11231 (2016)) as antigen for the nanobody), at both 37 and 4° C.
# For microscopy experiments, 20′000 cells (10′000 in the case of the GFP-PCNA HeLa Kyoto cell line^7) were seeded into the wells of a 96-well glass bottom plate. The cells were left to adhere and grow for 24 hours at 37° C. with 5% CO2. For 37° C. experiments, the cells were washed once with DMEM before addition of the protein samples in DMEM. The cells were incubated for 1 hour at 37° C. The cells were then washed three times with DMEM with 10% fetal bovine serum (FBS). Cells were generally imaged live with incubation at 37° C. and 5% CO2. For the quantitative microscopy experiments, the cells were fixed using 4% PFA in PBS for 30 minutes at room temperature after washing.
# For 4° C. experiments, the cells were pre-chilled at 4° C. for 1 hour. The cells were then washed with cold DMEM and the proteins were added in cold DMEM to the cells. The cells were incubated at 4° C. for 1 hour. Afterwards, the cells were washed thrice with cold DMEM with 10% FBS, before fixation with 4% PFA in PBS for 30 minutes at room temperature.
# Confocal microscopy images were acquired on a Nikon-CSU spinning disc microscope with an CSU—X1 (Andor) and a live cell incubation chamber (OKOlab).
# [7] = test system: HeLa CLL-2 cells; experiment: WST-1 cell viability assay; settings: 10 μM
# Experimental: Absorbance at 440 nm is indicative of cellular metabolic activity in the processing of WST-1 to the absorbing Formazan. […] The cells were treated with either 5 μM NLS-mCherry-R10 II in DMEM alone (lower panel) or with 10 μM TNB-R10 5 in DMEM (upper panel). After one-hour incubation, cells were washed again in DMEM and treated with 5 μM Calcein AM in DMEM. The morphology of the cells as shown in the differential interference contrast (DIC) images is also unaffected. Scale bars 50 μm. c, Co-delivery of NLS-mCherry-R10 II in presence of Sytox Blue dead cell stain with or without added TNB-R10 5. Scale bars 20 μm.
# [8] = test system: HeLa Kyoto cells transfected with EGFP-transmembrane-Halotag plasmid; experiment: Halotag-tethering of CPP and delivery of NLS-mCherry-cR10 I; settings: 5 μM NLS-mCherry-cR10 I, 20 μM Halo-R10, 1 hour 37° C.
# Experimental: The arrowheads indicate nucleation zones stained by both peptides. b, Time-lapse of the co-delivery of NLS-mCherry-R10 II together with the Maleimide-R10-Cy5 peptide 13 on HeLa Kyoto cells in cell medium. The arrowheads indicate nucleation zones and blue arrowheads the appearance of nucleolar staining of the mCherry. c, Cellular uptake of NLS-mCherry-cR10 I in presence of chloroalkane-modified “Halo-R10” 17 on HeLa Kyoto cells transfected with EGFP-transmembrane-Halotag plasmid, 1 hour at 37° C. in cell medium. SP: Signal peptide, TM: transmembrane sequence. […] Uptake experiments with peptides 16 and 18-20 in FIG. 26. Scale bars 20 μm.
# Transfected cells were treated with 1 μM JF646-Halotag-Iigand (Promega). […] The arrowheads show nucleoli with mCherry fluorescence. See also main text FIG. 3. Scale bars 20 μm.
# To elaborate this further, the inventors generated a plasmid that would lead to expression of an EGFP reporter inside transfected cells along with a Halotag (England, C. G., Luo, H. & Cai, W. HaloTag technology: a versatile platform for biomedical applications. Bioconjug Chem 26, 975-986, doi:10.1021/acs.bioconjchem.5b00191 (2015)) on the cell surface (simplified plasmid map in FIG. 3c, validation of the plasmid and additional controls in FIG. 28). […]
# [9] = test system: accessible cell-surface thiols; experiment: Fluorescent labelling of accessible cell-surface thiols; settings: 50 μM for 10 minutes, then 10 μM atto 488 maleimide
# Excerpt: Next, the inventors wanted to explore other cysteine-selective reactions in this context. […] The inventors first wanted to confirm that there are addressable, surface-exposed thiols on cells. To that end, the inventors labelled cells with a cell-impermeable, maleimide-functionalized fluorophore (FIG. 20).
molecule,measurement,setting,value
"NLS-mCherry-exR10 IV: recombinantly expressed mCherry with a C-terminal R10 peptide, SEQ ID NO: 3",uptake of recombinant CPP-fusion protein,[1]; 5 μM alone,predominantly endosomal uptake
same,uptake of recombinant CPP-fusion protein,[1]; 5 μM with addition of peptide 5,efficiently rescued
N=C(N)NCCC[C@H](NC(=O)[C@H](CCCNC(=N)N)NC(=O)[C@H](CCCNC(=N)N)NC(=O)[C@H](CCCNC(=N)N)NC(=O)[C@H](CCCNC(=N)N)NC(=O)[C@H](CCCNC(=N)N)NC(=O)[C@H](CCCNC(=N)N)NC(=O)[C@H](CCCNC(=N)N)NC(=O)[C@H](CCCNC(=N)N)NC(=O)[C@H](CCCNC(=N)N)NC(=O)COCCOCCNC(=O)COCCOCCNC(=O)[C@@H](N)CS)C(N)=O [peptide 2],nucleolar mCherry in presence of endocytosis inhibitors,[2],could detect nucleolar mCherry regardless of the inhibitor used
same,co-delivery efficiency in presence of serum,[3]; 5% serum or lower,negligible effect on uptake
same,co-delivery efficiency in presence of serum,[3]; 10% serum,reduced efficiency
same,performance in presence of serum compared with alkylated variant,"[3]; NLS-mCherry-R10 II, serum",performed significantly better than the alkylated variant 3
same,expression of the Cre reporter,"[4]; 1 μM Cre-exR8 with 10 μM peptide vs alone, 5% serum",strong increase in expression of the Cre reporter
same,"red fluorescence, epifluorescence microscopy",[4]; Cre-exR8 in presence of additional peptide,higher incidence of red fluorescence
same,staining after co-delivery,[5],nuclear/nucleolar staining
same,cells with nucleolar red fluorescence,[6]; 5 μM NLS-mCherry-R10 II with the CPP-additive,more than 90%
same,nucleolar delivery of NLS-mCherry linked to linear R10 with linear CPP-additive,"[6]; 5 μM additive, 5 μM NLS-mCherry-R10",efficient nucleolar delivery
CN[C@@H]1C[C@H]2O[C@@](C)([C@@H]1OC)n1c3ccccc3c3c4c(c5c6ccccc6n2c5c31)C(=O)NC4 [staurosporine],effect on cellular metabolic activity (positive control),[7],"significant, detrimental effect"
6-chlorohexanoic acid-PEG*-RRRRRRRRRR-Amide ({6‑chlorohexanoyl-AEEA-AEEA}-RRRRRRRRRR-NH2) [compound 17],nucleolar mCherry staining in transfected cells,[8],mCherry in the nucleoli of EGFP-positive cells
"O=C(O)c1cc(SSc2ccc([N+](=O)[O-])c(C(=O)O)c2)ccc1[N+](=O)[O-] [Ellman's reagent, 5,5′-dithiobis-(2-nitrobenzoic acid)]",labelling of cell-surface thiols by maleimide fluorophore after pre-treatment,[9],Labelling is dramatically reduced

# Source: patent US20250269046A1, “CELLULAR UPTAKE OF LARGE BIOMOLECULES ENABLED BY CELL-SURFACE-REACTIVE CELL-PENETRATING PEPTIDE ADDITIVES” (FORSCHUNGSVERBUND BERLIN E.V., priority 2021, published 2025)
